One assay concerns LNCaP cells. The assay can be described thus: MTT viability assay. The following applies: Homo sapiens, 24 h, DMSO as reference, read-out: cell viability. The class given is cell-based. As for the experimental part: Protein kinase CK2 is essential for the survival of cells. Therefore, we tested the impact of the CK2 inhibitors on the viability of cells in both lines. The inhibitors were applied in increasing concentrations up to 50 µM to growing cell cultures and the viability was analyzed by a MTT assay after 24 h of treatment. The effect of the compounds on the growth of the normal ARPE19 cells was rather moderate (Figure 5A). 5 had no impact on ARPE19 cell viability. 4b reduced the viability to 70% in its highest concentration and 4a exerted the strongest influence by reducing the ratio of viable cells to 40% when applying a 50 µM dose. In contrast LNCaP cells were strongly impaired by the treatment with the dibenzofurans (Figure 5B): Using 10 µM of the different inhibitors, we only observed an effect with 4b. However, increasing the concentration to 20, 25 and 50 µM exerted a drastic impact on the viability of LNCaP cells. With 50 µM 4b a viability rate of final 5% was obtained, whereas 4a and 5 reduced the viability to 30 to 35%. Thus, the inhibitors in particular affected the viability of LNCaP carcinoma cells, but not of normal retinal pigment epithelium cells. […] Even after 48 h of growth under CK2 inhibition ARPE19 cells appeared rather unaffected by the treatment. […]
Figure 5 Effects of dibenzofuran inhibitors on cell viability. […] Cell viability was determined using the MTT assay after 24 h of incubation. […]
ARPE19 cells (ATCC Number: CRL-2302), retinal pigment epithelia (RPE) cells, were maintained at 37 °C and 5% CO2 in Dulbecco’s modified Eagles medium (DMEM) supplemented with 2 mM L-glutamine, 1 mM gentamicin and 10% fetal calf serum (FCS) at 37 °C in an atmosphere enriched with 5% CO2. […] For the evaluation of cell morphology ARPE19 and LNCaP cells were analysed with bright field microscopy using a Axiovert microscope from Zeiss (Jena, Germany).
Cell proliferation and viability was determined using a colorimetric MTT-based assay (MTT: 3-[4,5-dimethylthiazol-2-yl]-2,5-diphenyl tetrazolium bromide, Sigma-Aldrich, Deisenhofen, Germany) as described in [72]. […]

For assay [1], the target named is T1, surface displayed CK2α + CK2β (CK2α containing human CK2 holoenzyme) (Homo sapiens, UniProt P68400).
T1 construct: surface-display (autodisplay) carrier protein; made in house; host or cells: Escherichia coli BL21 (DE3), enzyme left on the cell surface
T1 sequence (P68400 whole entry): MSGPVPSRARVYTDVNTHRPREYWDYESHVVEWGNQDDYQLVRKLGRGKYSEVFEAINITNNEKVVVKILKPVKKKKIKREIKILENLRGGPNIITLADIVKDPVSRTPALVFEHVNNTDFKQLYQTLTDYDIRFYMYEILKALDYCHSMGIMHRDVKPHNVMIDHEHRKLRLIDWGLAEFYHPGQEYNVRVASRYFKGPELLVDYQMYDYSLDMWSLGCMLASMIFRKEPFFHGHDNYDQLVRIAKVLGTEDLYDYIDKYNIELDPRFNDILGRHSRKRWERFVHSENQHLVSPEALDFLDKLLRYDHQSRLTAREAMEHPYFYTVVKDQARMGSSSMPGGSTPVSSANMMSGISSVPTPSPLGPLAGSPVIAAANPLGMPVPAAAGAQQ
T1 sequence (P67870 whole entry partner): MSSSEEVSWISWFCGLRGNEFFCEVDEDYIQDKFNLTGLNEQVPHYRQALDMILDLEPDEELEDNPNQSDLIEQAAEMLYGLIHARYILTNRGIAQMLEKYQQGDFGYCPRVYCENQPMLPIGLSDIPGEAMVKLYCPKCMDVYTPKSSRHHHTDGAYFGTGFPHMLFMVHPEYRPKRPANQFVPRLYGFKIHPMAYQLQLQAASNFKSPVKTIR
The assay can be described thus: whole-cell CK2 selectivity assay, holoenzyme surface displayed on E. coli. The class given is biochemical. Conditions: 600 µM ATP, 100 µM substrate peptide. An excerpt:
We recently reported a whole cell CK2 activity assay, which can be used for testing the selectivity of compounds towards CK2α and CK2α’ [47]. It is based on the surface display of the human CK2 subunits, either α or α’ together with β on E. coli, were they are able to form a functional tetrameric holoenzymes, either ααββ or α’α’ββ, depending on which α isoform has been expressed. This technique was used to investigate whether 4a or 5 have preference to one of the two catalytic isoforms of CK2.
For this purpose, their IC50 were determined following the protocol of the recently described whole-cell CK2 selectivity assay. In summary, 78 µL of a bacterial suspension of Escherichia coli BL21 (DE3) either surface displaying CK2α + CK2β or CK2α’ + CK2β in kinase buffer (50 mM Tris/HCl, pH 8.5, 100 mM NaCl, 10 mM MgCl2 and 1 mM DTT) were supplemented with 2 µL of the test compound dissolved in DMSO and incubated at 37 °C and 400 rpm for 10 min. CK2 reactions were started by the addition of 120 µL of assay buffer (25 mM Tris/HCl, pH 7.5, 150 mM NaCl, 5 mM MgCl2, 1 mM DTT, 167 µM substrate peptide […] and 1 mM ATP) leading to a total reaction volume of 200 µL with final concentrations of 100 µM for the substrate peptide and 600 µM for ATP. […] After the samples were incubated for 120 min at 37 °C and 400 rpm, the CK2 presenting bacteria were removed by centrifugation (3850× g, 5 min, 4 °C). The obtained supernatants were transferred to the wells of a 96 well-microplate and finally supplemented with EDTA to a concentration of 12.5 mM to definitely stop the enzymatic reactions. The samples were then subjected to a Beckman Coulter pa800 plus (Krefeld, Germany) CE system and analyzed for phosphorylation of the substrate peptide. Samples containing pure DMSO served as controls for 0% inhibition and samples additionally lacking ATP served as controls for 100% inhibition. […] IC50 values were calculated from the resulting dose-response curves.
CK2α’ + CK2β (right column).
Mean values ± standard errors of
the means (SEM) are shown. […]

A further assay deals with T2, CK2α (Homo sapiens, UniProt P68400).
T2 construct: purchased Reaction Biology Corp
T2 sequence (P68400 whole entry): as the sequence (P68400 whole entry) above
The assay can be described thus: kinase selectivity profile (Reaction Biology Corp.). The class given is biochemical. The following applies: 10 µM inhibitor, 10 µM ATP, relative to control without inhibitor; read-out: residual activity. From the text: (§1) This demands further investigation.

A further assay has as its target T3, CK2α’ (Homo sapiens, UniProt P19784).
T3 construct: purchased Reaction Biology Corp
Described as above. The format is biochemical. The following applies: 10 µM inhibitor, 10 µM ATP, relative to control without inhibitor; read-out: residual activity.
Excerpt: as §1

Molecules are shown by their SMILES. Some results are limits rather than exact numbers.

T3 sequence (P19784 whole entry): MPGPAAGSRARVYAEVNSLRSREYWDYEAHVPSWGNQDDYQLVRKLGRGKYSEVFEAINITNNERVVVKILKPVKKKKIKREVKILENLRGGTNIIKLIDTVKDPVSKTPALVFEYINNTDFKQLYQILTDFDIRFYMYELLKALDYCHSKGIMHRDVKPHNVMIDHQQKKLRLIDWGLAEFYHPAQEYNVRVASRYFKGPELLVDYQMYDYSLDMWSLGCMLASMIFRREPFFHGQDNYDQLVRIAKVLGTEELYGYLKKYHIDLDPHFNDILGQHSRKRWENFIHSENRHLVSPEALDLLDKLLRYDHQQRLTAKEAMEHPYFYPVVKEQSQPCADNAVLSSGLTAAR

In the case of `COc1ccc(N/C=C2\C(=O)CCc3c2oc2cc(Cl)c(O)c(Cl)c32)cc1` [4a, 7,9-dichloro-1,2-dihydro-8-hydroxy-4-[(4-methoxyphenylamino)methylene]dibenzo[b,d]furan-3(2H)-one], the viability at 50 µM in the assay on LNCaP cells is 30 to 35%. Moreover, in assay [1], the IC50 is 62 nM. Moreover, the results for the remaining activity at 10 µM on CK2α and at CK2α’ were below 2% and below 1%, respectively.

For the molecule `COc1ccc(/N=C/c2c(O)ccc3c2oc2cc(Cl)c(O)c(Cl)c23)cc1` [compound 5, (E)-1,3-dichloro-6-[(4-methoxyphenylimino)methyl]dibenzo[b,d]furan-2,7-diol], the viability at 50 µM in the assay on LNCaP cells was in the range of 30 to 35%. Besides, in assay [1], the IC50 came out at 98 nM. Further, the remaining activity at 10 µM on CK2α is below 2%; on CK2α’, below 1%.

As for `Cc1ccc(NC=C2C(=O)CCc3c2oc2c(Cl)c(Cl)c(O)cc32)cc1` [4b, 6,7-dichloro-1,4-dihydro-8-hydroxy-4-[(4-methylphenylamino)methylene]dibenzo[b,d]furan-3(2H)-one], the viability at 50 µM in the assay on LNCaP cells was determined as 5%. Besides, in assay [1], the IC50 was found to be 877 nM.
